Active and inactive are the calls of the source. The rule behind the calls is not given here.
Test system: CCRIS mutagenicity, Ames/micronucleus/aberration tests
Experiment: CCRIS mutagenicity studies

O=P1(N(CCCl)CCCl)NCCCO1 (stereo not drawn)
mutagenic call (Test System: AMES SALMONELLA TYPHIMURIUM, Strain/Indicator: TA100, Metabolic Activation: RAT,LIVER, HEPATOCYTES, PHENOBARBITAL, Method: PREINCUBATION): active; positive
mutagenic call (Test System: AMES SALMONELLA TYPHIMURIUM, Strain/Indicator: TA100, Metabolic Activation: S-9, Method: PREINCUBATION): active; positive
mutagenic call (Test System: AMES SALMONELLA TYPHIMURIUM, Strain/Indicator: TA100, Metabolic Activation: S-9, Method: STANDARD PLATE): active; positive
mutagenic call (Test System: AMES SALMONELLA TYPHIMURIUM, Strain/Indicator: TA1535, Metabolic Activation: NONE, Method: SPIRAL ASSAY): active; positive
mutagenic call (Test System: AMES SALMONELLA TYPHIMURIUM, Strain/Indicator: TA1535, Metabolic Activation: RAT (MALE), LIVER, HEPATOCYTES, AROCLOR 1254, Method: STANDARD PLATE): active; positive
mutagenic call (Test System: AMES SALMONELLA TYPHIMURIUM, Strain/Indicator: TA1535, Metabolic Activation: RAT (MALE), LIVER, HEPATOCYTES, Method: STANDARD PLATE): active; positive
mutagenic call (Test System: AMES SALMONELLA TYPHIMURIUM, Strain/Indicator: TA1535, Metabolic Activation: RAT (PREGNANT FEMALE), LIVER, HEPATOCYTES, AROCLOR 1254, Method: STANDARD PLATE): active; positive
mutagenic call (Test System: AMES SALMONELLA TYPHIMURIUM, Strain/Indicator: TA1535, Metabolic Activation: RAT (PREGNANT FEMALE), LIVER, HEPATOCYTES, Method: STANDARD PLATE): inactive; negative
mutagenic call (Test System: AMES SALMONELLA TYPHIMURIUM, Strain/Indicator: TA1535, Metabolic Activation: RAT, LIVER, HEPATOCYTES, PHENOBARBITAL, Method: PREINCUBATION): active; positive
mutagenic call (Test System: AMES SALMONELLA TYPHIMURIUM, Strain/Indicator: TA1535, Metabolic Activation: RAT, LIVER, S-9, AROCLOR 1254, Method: PREINCUBATION): active; positive
mutagenic call (Test System: AMES SALMONELLA TYPHIMURIUM, Strain/Indicator: TA1535, Metabolic Activation: RAT, LIVER, S-9, AROCLOR 1254, Method: SPIRAL ASSAY): active; positive
mutagenic call (Test System: AMES SALMONELLA TYPHIMURIUM, Strain/Indicator: TA1535, Metabolic Activation: RAT, LIVER, S-9, PHENOBARBITAL AND ALPHA-NAPHTHOFLAVONE, Method: STANDARD PLATE): active; positive
mutagenic call (Test System: AMES SALMONELLA TYPHIMURIUM, Strain/Indicator: TA1535, Metabolic Activation: RAT, LIVER, S-9, PHENOBARBITAL, Method: STANDARD PLATE): active; positive
mutagenic call (Test System: AMES SALMONELLA TYPHIMURIUM, Strain/Indicator: TA1535, Metabolic Activation: RAT, LIVER, S-9, Method: STANDARD PLATE): active; positive
mutagenic call (Test System: AMES SALMONELLA TYPHIMURIUM, Strain/Indicator: TA1537, Metabolic Activation: NONE, Method: SPIRAL ASSAY): inactive; negative
mutagenic call (Test System: AMES SALMONELLA TYPHIMURIUM, Strain/Indicator: TA1537, Metabolic Activation: NONE, Method: STANDARD PLATE): inactive; negative
mutagenic call (Test System: AMES SALMONELLA TYPHIMURIUM, Strain/Indicator: TA1537, Metabolic Activation: RAT, LIVER, S-9, AROCLOR 1254, Method: SPIRAL ASSAY): inactive; negative
mutagenic call (Test System: AMES SALMONELLA TYPHIMURIUM, Strain/Indicator: TA1537, Metabolic Activation: S-9, Method: STANDARD PLATE): inactive; negative
mutagenic call (Test System: CHINESE HAMSTER V-79, Strain/Indicator: V-79/6-THIOGUANINE, Metabolic Activation: NONE, Method: SUSPENSION/PLATE): inactive; negative
mutagenic call (Test System: CHINESE HAMSTER V-79, Strain/Indicator: V-79/6-THIOGUANINE, Metabolic Activation: RAT, LIVER, HEPATOCYTES, Method: SUSPENSION/PLATE): active; positive
mutagenic call (Test System: E. COLI, Strain/Indicator: WP2 (HCR), Metabolic Activation: S-9, Method: STANDARD PLATE): active; positive
mutagenic call (Test System: E. COLI, Strain/Indicator: WP2, Metabolic Activation: NONE, Method: FLUCTUATION (MICROTITER)): active; positive
mutagenic call (Test System: E. COLI, Strain/Indicator: WP2 UVRA, Metabolic Activation: HAMSTER, LIVER, S-9, AROCLOR 1254, Method: STANDARD PLATE): inactive; negative
mutagenic call (Test System: E. COLI, Strain/Indicator: WP2 UVRA, Metabolic Activation: HAMSTER, LIVER, S-9, Method: STANDARD PLATE): inactive; negative
mutagenic call (Test System: E. COLI, Strain/Indicator: WP2 UVRA, Metabolic Activation: MOUSE, LIVER, S-9, AROCLOR 1254, Method: STANDARD PLATE): inactive; negative
mutagenic call (Test System: E. COLI, Strain/Indicator: WP2 UVRA, Metabolic Activation: MOUSE, LIVER, S-9, Method: STANDARD PLATE): inactive; negative
mutagenic call (Test System: E. COLI, Strain/Indicator: WP2 UVRA, Metabolic Activation: NONE, Method: FLUCTUATION (MICROTITER)): active; positive
mutagenic call (Test System: E. COLI, Strain/Indicator: WP2 UVRA, Metabolic Activation: NONE, Method: STANDARD PLATE): inactive; negative
mutagenic call (Test System: E. COLI, Strain/Indicator: WP2 UVRA, Metabolic Activation: RAT, LIVER, S-9, AROCLOR 1254, Method: STANDARD PLATE): inactive; negative
mutagenic call (Test System: E. COLI, Strain/Indicator: WP2 UVRA, Metabolic Activation: RAT, LIVER, S-9, Method: STANDARD PLATE): inactive; negative
mutagenic call (Test System: MOUSE LYMPHOMA, Strain/Indicator: L5178Y (TK+/TK-), Metabolic Activation: NONE, Method: SUSPENSION/PLATE): active; positive
mutagenic call (Test System: UDS RAT HEPATOCYTES, Strain/Indicator: THY INCORP, Metabolic Activation: NONE, Method: AUTORADIOGRAPHY): active; positive
mutagenic call (Test System: UDS RAT HEPATOCYTES, Strain/Indicator: THY INCORP, Metabolic Activation: NONE, Method: AUTORADIOGRAPHY (SERUM-FREE MEDIA)): active; positive

Source: PubChem BioAssay AID1259407 (Chemical Carcinogenesis Research Information System (CCRIS), 2018)
